Data taken from patent publication US20260234115A1, “LIPID COMPOUNDS, COMPOSITIONS, AND USES THEREOF” (Liberate Bio, Inc., priority 2023, published 2026).
Marks after values point to notes of the source that are not given here. Blank lines part the entries; values can stand above or below the compound they belong to.

How the values were obtained:
[1] = Dynamic light scattering: LNP particle size and PDI; format: physicochemical; conditions: for PDI N/P:6 / Size (nm) N/P:6: LNP
Outline: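 The LNPs were made by microfluidic mixing of the lipids in ethanol with mRNA in pH 4.0 citrate, then dialyzed into PBS pH 7.4. They were diluted in PBS pH 7.4, and particle size and PDI were measured by dynamic light scattering.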

[2] = test system: mouse organs; assay: In vivo activity screening in mice: organ mean total flux (p/s) of luciferase activity after injection of F2 LNP pools (Table 6, FIG. 7A-7C); conditions: luciferase mRNA
Outline: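 C57BL/6J mice given one tail-vein injection of pooled Formulation F2 LNPs carrying firefly luciferase mRNA (0.25-3 mg/kg) in PBS. At 4-6 h, s.c. D-luciferin given; organs imaged ex vivo by IVIS within 10-15 min, after saline cardiac perfusion. Mean total flux (p/s) per organ ROI.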

[3] = Plate-based fluorescence (RiboGreen) assay: nucleic acid cargo content and encapsulation efficiency of LNPs; format: physicochemical; conditions: for EE (%) N/P:6: LNP
Outline: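 LNPs made by microfluidic mixing of ethanolic lipids with mRNA in pH 4.0 citrate, dialyzed into PBS pH 7.4. Cargo quantified by RiboGreen fluorescence against a standard curve: Triton-lysed samples give total, TE-only samples give free cargo; encapsulation efficiency from their ratio.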

[4] = LNP compositions for Formulation F2 Study
[5] = LNP compositions for in vivo mouse study, four formulations (F1-F4) pooled, or pools of four compounds

PDI [1, 4]: 0.098
Particle Size (nm) [1, 4]: 87.8 nm
EE % [3, 4]: 98%
SMILES: CCCCC/C=C\C/C=C\CCCCCCCCC(CCCCCCCC/C=C\C/C=C\CCCCC)OC(=O)CCCN(C)C [MC3, reference compound]
Organ Mean Total Flux Femur ([2]; Mouse 1, dose 0.3 mg/kg): 8.5 p/s (×10^6)
Organ Mean Total Flux Heart ([2]; Mouse 1, dose 0.3 mg/kg): 2.8 p/s (×10^6)
Organ Mean Total Flux Kidney ([2]; Mouse 1, dose 0.3 mg/kg): 1.9 p/s (×10^6)
Organ Mean Total Flux Liver ([2]; Mouse 1, dose 0.3 mg/kg): 6896 p/s (×10^6)
Organ Mean Total Flux Lung ([2]; Mouse 1, dose 0.3 mg/kg): 17.2 p/s (×10^6)
Organ Mean Total Flux Muscle ([2]; Mouse 1, dose 0.3 mg/kg): 7.5 p/s (×10^6)
Organ Mean Total Flux Pancreas ([2]; Mouse 1, dose 0.3 mg/kg): 2.6 p/s (×10^6)
Organ Mean Total Flux Spleen ([2]; Mouse 1, dose 0.3 mg/kg): 22.3 p/s (×10^6)
Organ Mean Total Flux Femur ([2]; Mouse 2, dose 1.0 mg/kg): 9.9 p/s (×10^6)
Organ Mean Total Flux Heart ([2]; Mouse 2, dose 1.0 mg/kg): 17.0 p/s (×10^6)
Organ Mean Total Flux Kidney ([2]; Mouse 2, dose 1.0 mg/kg): 16.6 p/s (×10^6)
Organ Mean Total Flux Liver ([2]; Mouse 2, dose 1.0 mg/kg): 15500 p/s (×10^6)
Organ Mean Total Flux Lung ([2]; Mouse 2, dose 1.0 mg/kg): 60.5 p/s (×10^6)
Organ Mean Total Flux Muscle ([2]; Mouse 2, dose 1.0 mg/kg): 16.6 p/s (×10^6)
Organ Mean Total Flux Pancreas ([2]; Mouse 2, dose 1.0 mg/kg): 7.4 p/s (×10^6)
Organ Mean Total Flux Spleen ([2]; Mouse 2, dose 1.0 mg/kg): 23.0 p/s (×10^6)
Organ Mean Total Flux Femur ([2]; Mouse 3, dose 1.0 mg/kg): 6.9 p/s (×10^6)
Organ Mean Total Flux Heart ([2]; Mouse 3, dose 1.0 mg/kg): 8.5 p/s (×10^6)
Organ Mean Total Flux Kidney ([2]; Mouse 3, dose 1.0 mg/kg): 7.3 p/s (×10^6)
Organ Mean Total Flux Liver ([2]; Mouse 3, dose 1.0 mg/kg): 9707 p/s (×10^6)
Organ Mean Total Flux Lung ([2]; Mouse 3, dose 1.0 mg/kg): 106.4 p/s (×10^6)
Organ Mean Total Flux Muscle ([2]; Mouse 3, dose 1.0 mg/kg): 23.6 p/s (×10^6)
Organ Mean Total Flux Pancreas ([2]; Mouse 3, dose 1.0 mg/kg): 2.7 p/s (×10^6)
Organ Mean Total Flux Spleen ([2]; Mouse 3, dose 1.0 mg/kg): 22.8 p/s (×10^6)
Organ Mean Total Flux Femur ([2]; Mouse 5, dose 0.5 mg/kg): 4.8 p/s (×10^6)
Organ Mean Total Flux Heart ([2]; Mouse 5, dose 0.5 mg/kg): 5.7 p/s (×10^6)
Organ Mean Total Flux Kidney ([2]; Mouse 5, dose 0.5 mg/kg): 18.6 p/s (×10^6)
Organ Mean Total Flux Liver ([2]; Mouse 5, dose 0.5 mg/kg): 5667 p/s (×10^6)
Organ Mean Total Flux Lung ([2]; Mouse 5, dose 0.5 mg/kg): 34.5 p/s (×10^6)
Organ Mean Total Flux Muscle ([2]; Mouse 5, dose 0.5 mg/kg): 10.0 p/s (×10^6)
Organ Mean Total Flux Pancreas ([2]; Mouse 5, dose 0.5 mg/kg): 1.9 p/s (×10^6)
Organ Mean Total Flux Spleen ([2]; Mouse 5, dose 0.5 mg/kg): 17.6 p/s (×10^6)
Organ Mean Total Flux Femur ([2]; Mouse 6, dose 0.5 mg/kg): 3.3 p/s (×10^6)
Organ Mean Total Flux Heart ([2]; Mouse 6, dose 0.5 mg/kg): 5.2 p/s (×10^6)
Organ Mean Total Flux Kidney ([2]; Mouse 6, dose 0.5 mg/kg): 3.9 p/s (×10^6)
Organ Mean Total Flux Liver ([2]; Mouse 6, dose 0.5 mg/kg): 4796 p/s (×10^6)
Organ Mean Total Flux Lung ([2]; Mouse 6, dose 0.5 mg/kg): 28.6 p/s (×10^6)
Organ Mean Total Flux Muscle ([2]; Mouse 6, dose 0.5 mg/kg): 8.2 p/s (×10^6)
Organ Mean Total Flux Pancreas ([2]; Mouse 6, dose 0.5 mg/kg): 3.6 p/s (×10^6)
Organ Mean Total Flux Spleen ([2]; Mouse 6, dose 0.5 mg/kg): 11.7 p/s (×10^6)
Organ Mean Total Flux Femur ([2]; Mouse 9, dose 0.5 mg/kg): 3.8 p/s (×10^6)
Organ Mean Total Flux Heart ([2]; Mouse 9, dose 0.5 mg/kg): 4.1 p/s (×10^6)
Organ Mean Total Flux Kidney ([2]; Mouse 9, dose 0.5 mg/kg): 2.1 p/s (×10^6)
Organ Mean Total Flux Liver ([2]; Mouse 9, dose 0.5 mg/kg): 3903 p/s (×10^6)
Organ Mean Total Flux Lung ([2]; Mouse 9, dose 0.5 mg/kg): 12.7 p/s (×10^6)
Organ Mean Total Flux Muscle ([2]; Mouse 9, dose 0.5 mg/kg): 5.6 p/s (×10^6)
Organ Mean Total Flux Pancreas ([2]; Mouse 9, dose 0.5 mg/kg): 1.1 p/s (×10^6)
Organ Mean Total Flux Spleen ([2]; Mouse 9, dose 0.5 mg/kg): 5.4 p/s (×10^6)
Organ Mean Total Flux Femur ([2]; Mouse 11, dose 0.5 mg/kg): 2.2 p/s (×10^6)
Organ Mean Total Flux Heart ([2]; Mouse 11, dose 0.5 mg/kg): 2.9 p/s (×10^6)
Organ Mean Total Flux Kidney ([2]; Mouse 11, dose 0.5 mg/kg): 1.0 p/s (×10^6)
Organ Mean Total Flux Liver ([2]; Mouse 11, dose 0.5 mg/kg): 2603 p/s (×10^6)
Organ Mean Total Flux Lung ([2]; Mouse 11, dose 0.5 mg/kg): 12.1 p/s (×10^6)
Organ Mean Total Flux Muscle ([2]; Mouse 11, dose 0.5 mg/kg): 2.7 p/s (×10^6)
Organ Mean Total Flux Pancreas ([2]; Mouse 11, dose 0.5 mg/kg): 0.7 p/s (×10^6)
Organ Mean Total Flux Spleen ([2]; Mouse 11, dose 0.5 mg/kg): 4.0 p/s (×10^6)
Organ Mean Total Flux Femur ([2]; Mouse 12, dose 0.5 mg/kg): 5.8 p/s (×10^6)
Organ Mean Total Flux Heart ([2]; Mouse 12, dose 0.5 mg/kg): 2.4 p/s (×10^6)
Organ Mean Total Flux Kidney ([2]; Mouse 12, dose 0.5 mg/kg): 53.9 p/s (×10^6)
Organ Mean Total Flux Liver ([2]; Mouse 12, dose 0.5 mg/kg): 2307 p/s (×10^6)
Organ Mean Total Flux Lung ([2]; Mouse 12, dose 0.5 mg/kg): 13.7 p/s (×10^6)
Organ Mean Total Flux Muscle ([2]; Mouse 12, dose 0.5 mg/kg): 4.1 p/s (×10^6)
Organ Mean Total Flux Pancreas ([2]; Mouse 12, dose 0.5 mg/kg): 9.6 p/s (×10^6)
Organ Mean Total Flux Spleen ([2]; Mouse 12, dose 0.5 mg/kg): 8.6 p/s (×10^6)
Organ Mean Total Flux Femur ([2]; Mouse 13, dose 0.5 mg/kg): 2.7 p/s (×10^6)
Organ Mean Total Flux Heart ([2]; Mouse 13, dose 0.5 mg/kg): 5.0 p/s (×10^6)
Organ Mean Total Flux Kidney ([2]; Mouse 13, dose 0.5 mg/kg): 0.9 p/s (×10^6)
Organ Mean Total Flux Liver ([2]; Mouse 13, dose 0.5 mg/kg): 1767 p/s (×10^6)
Organ Mean Total Flux Lung ([2]; Mouse 13, dose 0.5 mg/kg): 8.3 p/s (×10^6)
Organ Mean Total Flux Muscle ([2]; Mouse 13, dose 0.5 mg/kg): 2.8 p/s (×10^6)
Organ Mean Total Flux Pancreas ([2]; Mouse 13, dose 0.5 mg/kg): 0.8 p/s (×10^6)
Organ Mean Total Flux Spleen ([2]; Mouse 13, dose 0.5 mg/kg): 5.7 p/s (×10^6)
Organ Mean Total Flux Femur ([2]; Mouse 14, dose 0.5 mg/kg): 2.2 p/s (×10^6)
Organ Mean Total Flux Heart ([2]; Mouse 14, dose 0.5 mg/kg): 4.4 p/s (×10^6)
Organ Mean Total Flux Kidney ([2]; Mouse 14, dose 0.5 mg/kg): 26.8 p/s (×10^6)
Organ Mean Total Flux Liver ([2]; Mouse 14, dose 0.5 mg/kg): 2037 p/s (×10^6)
Organ Mean Total Flux Lung ([2]; Mouse 14, dose 0.5 mg/kg): 19.3 p/s (×10^6)
Organ Mean Total Flux Muscle ([2]; Mouse 14, dose 0.5 mg/kg): 5.7 p/s (×10^6)
Organ Mean Total Flux Pancreas ([2]; Mouse 14, dose 0.5 mg/kg): 1.2 p/s (×10^6)
Organ Mean Total Flux Spleen ([2]; Mouse 14, dose 0.5 mg/kg): 8.5 p/s (×10^6)

SMILES: CCCCC/C=C\CCOC(=O)CCCCCCC(=O)OCC(COC(=O)CCCCCCC(=O)OCC/C=C\CCCCC)(COC(=O)CCC(CCCCCC)OC(=O)NCCN1CCCC1)COC(=O)CCC(OCCCCCCCC)OCCCCCCCC (centres unmarked) [Compound 12, O8-[2-(4,4-dioctoxybutanoyloxymethyl)-2-[[8-[(Z)-non-3-enoxy]-8-oxo-octanoyl]oxymethyl]-3-[4-(2-pyrrolidin-1-ylethylcarbamoyloxy)decanoyloxy]propyl]O1-[(Z)-non-3-enyl]octanedioate]
Particle Size (nm) ([1]; LNP compositions for in vivo mouse study, four formulations (F1-F4) of the lipid compound pooled, or pools of four compounds (sixteen compositions)): 83.7 nm
PDI [1, 5]: 0.119
PDI N/P:6 ([1]; Formulation F1, N/P 6): 0.16
Size (nm) N/P:6 ([1]; Formulation F1, N/P 6): 81 ± 9 nm
PDI N/P:6 ([1]; Formulation F2, N/P 6): 0.07
Size (nm) N/P:6 ([1]; Formulation F2, N/P 6): 84 ± 5 nm
PDI N/P:6 ([1]; Formulation F3, N/P 6): 0.04
Size (nm) N/P:6 ([1]; Formulation F3, N/P 6): 93 ± 1 nm
PDI N/P:6 ([1]; Formulation F4, N/P 6): 0.09
Size (nm) N/P:6 ([1]; Formulation F4, N/P 6): 63 ± 0 nm
Organ Mean Total Flux Femur ([2]; Mouse 1, dose 0.3 mg/kg): 1.3 p/s (×10^6)
Organ Mean Total Flux Heart ([2]; Mouse 1, dose 0.3 mg/kg): 0.1 p/s (×10^6)
Organ Mean Total Flux Kidney ([2]; Mouse 1, dose 0.3 mg/kg): 0.2 p/s (×10^6)
Organ Mean Total Flux Liver ([2]; Mouse 1, dose 0.3 mg/kg): 61.8 p/s (×10^6)
Organ Mean Total Flux Lung ([2]; Mouse 1, dose 0.3 mg/kg): 0.7 p/s (×10^6)
Organ Mean Total Flux Muscle ([2]; Mouse 1, dose 0.3 mg/kg): 2.7 p/s (×10^6)
Organ Mean Total Flux Pancreas ([2]; Mouse 1, dose 0.3 mg/kg): 0.2 p/s (×10^6)
Organ Mean Total Flux Spleen ([2]; Mouse 1, dose 0.3 mg/kg): 0.7 p/s (×10^6)
EE % [3, 5]: 97%
mRNA Content [3, 5]: 91 µg/mL
EE (%) N/P:6 ([3]; Formulation F1, N/P 6): 98%
EE (%) N/P:6 ([3]; Formulation F2, N/P 6): 98%
EE (%) N/P:6 ([3]; Formulation F3, N/P 6): 97%
EE (%) N/P:6 ([3]; Formulation F4, N/P 6): 98%
